Results: paper PMC4906375, “Contribution of Amphipathicity and Hydrophobicity to the Antimicrobial Activity and Cytotoxicity of β-Hairpin Peptides” (ACS Infectious Diseases, 2016)
≈ marks a conversion by molar mass, not a printed value. Read-outs that look alike come from different tables or passages of the source. Residues, ends and D or L forms follow the SMILES beside them.

Columns and labels:
[1] = system: K. pneumoniae ATCC 700603 (MDR); assay type: cell-based, Klebsiella pneumoniae; settings: n = 4
Description: (§1) Both antibacterial and antifungal MIC assays were performed by a broth microdilution plate based method as per CLSI guidelines for antimicrobial susceptibility testing.[53],[54] […] Full assay details are included in the Supporting Information with a full list of strains tested in Table S1.
(§2) Antibacterial assay (Minimum Inhibitory Concentration [MIC]).
(§3) MIC assay was performed by a broth microdilution plate based method as per CLSI guidelines for antimicrobial susceptibility testing of aerobic bacteria.1 Compounds were prepared at 1.28 mg/mL solution in water. The tested strains, Table S1, were cultured in Luria broth (LB) (In Vitro Technologies, USB75852), at 37 °C overnight. A sample of culture was then diluted 40Pfold in fresh Muller Hinton broth (MHB) (Bacto laboratories, 211443) and incubated at 37 °C for 1.5P2 h. The compounds were serially diluted twoPfold across the wells, with compound concentrations ranging from 0.015 µg/mL to 512 µg/mL, plated in duplicate. The resultant midPlog phase cultures were diluted to the final concentration of 1×10^6 CFU/mL, then 50 µL was added to each well of the compoundP containing 96Pwell plates (Corning 3641, NonPbinding Surface [NBS]), giving a final compound concentration range of 0.008 µg/mL to 256 µg/mL and 5x10^5 CFU/mL. All the plates were covered and incubated at 37 °C for 18 h. MICs were determined visually, being defined as the lowest concentration showing no visible growth. Resazurin was added at 0.001% final concentration to each well and incubated for 2 h before MICs were rePread for confirmation using the colour change from blue to pink to indicate wells containing viable cells. The resazurin assay was added in some wells where some form of precipitate was present in otherwise clear wells, making it difficult to ascertain which wells had visible […]
(§4) Antifungal assay (Minimum Inhibitory Concentration [MIC]). MIC assay was performed by a broth microdilution plate based method as per CLSI guidelines for antimicrobial susceptibility testing.2 Fungi strains, Table S1, were cultured for 3 days on Yeast ExtractPPeptone Dextrose (YPD) (SigmaPAldrich, Y1500) agar at 30 °C. A yeast suspension of 1x10^6 to 5x10^6 CFU/mL was prepared from five colonies. These stock suspensions were diluted with Yeast Nitrogen Base (YNB) (Becton Dickinson, 233520) broth to a final concentration of 2.5 ×10^3 CFU/mL. All samples, compounds and standards were plated in 96Pwell plates (Corning 3641, NonPbinding Surface [NBS]), by adding 10 µL of 1.28 mg/mL stock solution to each well and 90 µL of media. Then, the samples were serial diluted (1:2) in 12 concentrations across the plate. The standard antifungal ranged from 256

K. pneumoniae ATCC 13883 = assay type: cell-based, Klebsiella pneumoniae; settings: ATCC 13883
Description: as §1, §2, §3, §4

[2] = system: K. pneumoniae BAA 2146 (NDM-1 pos); assay type: cell-based, Klebsiella pneumoniae; settings: n = 4
Description: as §1, §2, §3, §4

[3] = hemolysis (%) at 300 μg/mL, human erythrocytes, 3 h, relative to 100% hemolysis by 1% Triton X-100
P. aeruginosa ATCC 27853 = assay type: cell-based, Pseudomonas aeruginosa; settings: ATCC 27853
Description: as §1, §2, §3, §4

B. subtilis ATCC 6051 = test: microbe, parasite or virus in culture; assay type: cell-based, Bacillus subtilis; settings: ATCC 6051
Description: as §1, §2, §3, §4

[4] = system: S. aureus ATCC 43300 (MRSA); test: microbe, parasite or virus in culture; assay type: cell-based, Staphylococcus aureus; settings: S. aureus ATCC 43300 (MRSA); n = 4
Description: as §1, §2, §3, §4

[5] = system: E. coli ATCC 25922 cytoplasmic membrane; test: Inner membrane permeability measured by SYTOX green fluorescence emission; settings: for permeabilisation of the E. coli cytoplasmic membrane at lethal concentrations: SYTOX green, E. coli ATCC 25922, 1 h
[6] = Cytotoxicity, Alamar Blue (resazurin) assay; assay type: cell-based, human; settings: human
Description: Cytotoxicity to HEK293 and HepG2 cells was determined using the Alamar Blue (resazurin) assay,[55],[56] with 24 h of incubation and either 1 or 10% serum concentration. Full assay details are included in the Supporting Information.
Cytotoxicity. Cytotoxicity to HEK293 and HepG2 cells was determined using the Alamar Blue (resazurin) assay,3, 4 For the assays supplemented with 1 % FBS as final concentration the cells were seeded one day prior to the assay (3,000 per 20 µL for HEK293 and 4,000 per 20 µL for HepG2) with DMEM + 2 % FBS. The compounds were prepared as described below, using DMEM with no FBS instead to give the final FBS concentration of 1 %.
The highest concentration the compounds were tested was 300 µg/mL. A dilution series of 1:3 fold steps in DMEM (GIBCOPInvitrogen, cat. no. 11995P073) + 10 % FBS was created (concentration range of 600 µg/mL – 0.28 µg/mL), and 20 µL of these 2x concentrated compound dilutions were added in duplicates to wells of a black wall, clear bottom 384Pwells cell culture plate. For the assays with 1 % FBS the compounds in 0 % FBS were added to the existing cell plates in 2 % FBS. 200 µM Tamoxifen (Sigma T5648) served as negative control and in addition a serial dilution of tamoxifen, starting at 200 µM (74 µg/mL), was included as a dose response control (1 in 2 dilution series for tamoxifen). For the assay with 10 % FBS, HepG2 cells were seeded at 5000 cells per well, in a volume of 20 µL in DMEM medium + 10 % of FBS and added to the 20 µL of compound solution (total volume of 40 µL), resulting in a final compound concentration range of 300 µg/mL to 0.14 µg/mL.
Cells were incubated together with the compounds for 20 h at 37 °C, 5 % CO2.
After the incubation, 5 µL of 100 µM (25 µg/mL) resazurin dissolved in PBS (final concentration was approximately 11 µM) was added to each well. The plates were then incubated for 3 h at 37 °C, 5 % CO2. The fluorescence intensity was read using the TECAN Infinite M1000 PRO with excitation/emission 560/590. The data was analysed by Graph Pad Prism software. Results are presented as the average percentage of control ± SD for each set of duplicate wells using the following equation: Cell survival % = (FISAMPLE – FINegative/FIUNTREATED –FINegative)*100. (100 µg/mL tamoxifen was set as 0 % survival, media

[7] = HEK293 cells, HEK293, 1% FBS, read-out: cytotoxicity HEK293 1% FBS
[8] = HEK293 cells, HEK293, 10% FBS, read-out: cytotoxicity HEK293 10% FBS
[9] = HepG2 cells, HepG2, 1% FBS, read-out: cytotoxicity HepG2 1% FBS
[10] = HepG2 cells, HepG2, 10% FBS, read-out: cytotoxicity HepG2 10% FBS

Compound	MIC [1] [µg/mL]	MIC (K. pneumoniae ATCC 13883) [µg/mL]	MIC [2] [µg/mL]	hemolysis [3] [%]	MIC (P. aeruginosa ATCC 27853) [µg/mL]	MIC (B. subtilis ATCC 6051) [µg/mL]	MIC [4] [µg/mL]	permeabilisation of the E. coli cytoplasmic membrane at lethal concentrations [5]	CC50 at 24 h [6, 7] [µg/mL]	CC50 at 24 h [6, 8] [µg/mL]	CC50 at 24 h [6, 9] [µg/mL]	CC50 at 24 h [6, 10] [µg/mL]	permeabilization concentration relative to MIC ([5]; same E. coli ATCC 25922 strain)
CC(C)[C@@H]1NC(=O)CNC(=O)[C@H](CC(N)=O)NC(=O)[C@H](CCCNC(=N)N)NC(=O)[C@H](Cc2ccc(O)cc2)NC(=O)[C@H](C(C)C)NC(=O)[C@@H]2CSSC[C@H](NC(=O)[C@H](C(C)C)NC(=O)[C@H](CCCNC(=N)N)NC1=O)C(=O)N[C@@H](Cc1ccc(O)cc1)C(=O)N[C@@H](CCCNC(=N)N)C(=O)N[C@@H](CCCNC(=N)N)C(=O)N[C@H](C(=O)N[C@@H](CC(N)=O)C(=O)O)CSSC[C@H](NC(=O)[C@H](Cc1ccccc1)NC(=O)CN)C(=O)N[C@@H](Cc1c[nH]c3ccccc13)C(=O)N[C@@H](Cc1ccc(O)cc1)C(=O)N[C@@H](C(C)C)C(=O)N2 [arenicin-3] (HELM PEPTIDE1{G.F.C.W.Y.V.C.V.Y.R.N.G.V.R.V.C.Y.R.R.C.N}$PEPTIDE1,PEPTIDE1,3:R3-20:R3|PEPTIDE1,PEPTIDE1,7:R3-16:R3$$$V2.0)	4 (≈ 1.53 µM)	1 (≈ 0.383 µM)	4 (≈ 1.53 µM)	4	1 (≈ 0.383 µM)	8 (≈ 3.06 µM)	64 (≈ 24.5 µM)	permeabilise	105 ± 1.8 (≈ 40 µM)	> 300	95.2 ± 4.1 (≈ 36.4 µM)	> 300	–
CC(C)[C@@H]1NC(=O)[C@H](CCCNC(=N)N)NC(=O)[C@H](Cc2ccccc2)NC(=O)[C@@H](NC(=O)[C@H](Cc2c[nH]c3ccccc23)NC(=O)[C@H](CCCNC(=N)N)NC(=O)[C@@H](N)CCCNC(=N)N)CSSC[C@@H](C(=O)N[C@@H](CCCNC(=N)N)C(N)=O)NC(=O)[C@H](CCCCN)NC(=O)[C@H](CCCNC(=N)N)NC(=O)[C@H](Cc2ccc(O)cc2)NC(=O)[C@@H]2CSSC[C@H](NC1=O)C(=O)N[C@@H](Cc1ccc(O)cc1)C(=O)N[C@@H](CCCNC(=N)N)C(=O)NCC(=O)N[C@@H](Cc1ccccc1)C(=O)N2 [polyphemusin-1] (HELM PEPTIDE1{R.R.W.C.F.R.V.C.Y.R.G.F.C.Y.R.K.C.R.[am]}$PEPTIDE1,PEPTIDE1,4:R3-17:R3|PEPTIDE1,PEPTIDE1,8:R3-13:R3$$$V2.0)	1 (≈ 0.407 µM)	0.5 (≈ 0.204 µM)	2 (≈ 0.815 µM)	~30	2 (≈ 0.815 µM)	0.25 (≈ 0.102 µM)	2 (≈ 0.815 µM)	permeabilise	36.6 ± 1.4 (≈ 14.9 µM)	188.5 ± 1.1 (≈ 76.8 µM)	36.5 ± 8.6 (≈ 14.9 µM)	254 ± 14.2 (≈ 104 µM)	lower concentration than their MIC
[H][C@]12CSSC[C@]([H])(NC(=O)[C@]([H])([C@@H](C)CC)NC(=O)CNC(=O)[C@H](CCCNC(=N)N)NC(=O)[C@H](Cc3ccc(O)cc3)NC1=O)C(=O)N[C@@H](Cc1ccc(O)cc1)C(=O)N[C@@H](CCCNC(=N)N)C(=O)N[C@@H](CCCNC(=N)N)C(=O)N[C@H](C(=O)N[C@@H](CCCNC(=N)N)C(N)=O)CSSC[C@H](NC(=O)[C@H](Cc1c[nH]c3ccccc13)NC(=O)[C@@H](N)CCCCN)C(=O)N[C@@H](Cc1ccccc1)C(=O)N[C@@H](CCCNC(=N)N)C(=O)N[C@@H](C(C)C)C(=O)N2 [tachyplesin-1] (HELM PEPTIDE1{K.W.C.F.R.V.C.Y.R.G.I.C.Y.R.R.C.R.[am]}$PEPTIDE1,PEPTIDE1,3:R3-16:R3|PEPTIDE1,PEPTIDE1,7:R3-12:R3$$$V2.0)	0.25 (≈ 0.11 µM)	0.125 (≈ 0.0552 µM)	0.25 (≈ 0.11 µM)	~30	0.25 (≈ 0.11 µM)	0.125 (≈ 0.0552 µM)	1 (≈ 0.442 µM)	permeabilise	94.7 ± 1.1 (≈ 41.8 µM)	> 300	65.7 ± 1.5 (≈ 29 µM)	> 300	–
CC[C@H](C)[C@H](NC(=O)[C@@H](NC(=O)[C@@H]1CCCN1C(=O)[C@@H](NC(=O)[C@@H]1CCCN1C(=O)[C@H](CCCCN)NC(=O)[C@H](CCCCN)NC(=O)[C@H](CO)NC(=O)CN)C(C)C)[C@@H](C)CC)C(=O)N[C@@H](Cc1ccc(O)cc1)C(=O)N[C@H]1CSSC[C@@H](C(=O)N[C@@H](CCC(N)=O)C(=O)N[C@@H](CCCNC(=N)N)C(=O)N[C@@H](CCSC)C(N)=O)NC(=O)[C@H](CCCCN)NC(=O)CNC(=O)[C@H]([C@@H](C)O)NC(=O)[C@H](CCCNC(=N)N)NC(=O)[C@H](CCCNC(=N)N)NC(=O)[C@H](CC(N)=O)NC1=O [thanatin]	64 (≈ 26.3 µM)	8 (≈ 3.29 µM)	256 (≈ 105 µM)	1.3 ± 0.4	256 (≈ 105 µM)	128 (≈ 52.6 µM)	256 (≈ 105 µM)	does not permeabilise	> 300	> 300	> 300	> 300	–
